Measurements: the supplement of paper PMC11451515

System: SEM cells
Assay: cell viability relative to DMSO control; higher = less cytotoxic
Settings: 48 h
Summary of the method: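 Viability values are per-plate percentages of DMSO wells, with background from cell-free wells. Library compounds in DMSO were pin-dosed, in an 11-point threefold series from 47 μM to 0.79 nM, onto NOMO1 or SEM (500 cells/well) or P12-Ichikawa (1000 cells/well) leukemia cells in 1536-well plates (5 μl). Those cells had been adapted for at least four passages in each medium, and CellTiter-Glo One luminescence was read after 48 h at 37°C.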

[1] = HPLM + 10% dialyzed FBS, 0.000781 µM
[2] = HPLM + 10% dialyzed FBS, 0.00234 µM
[3] = HPLM + 10% dialyzed FBS, 0.00702 µM
[4] = HPLM + 10% dialyzed FBS, 0.0211 µM
[5] = HPLM + 10% dialyzed FBS, 0.0632 µM
[6] = HPLM + 10% dialyzed FBS, 0.19 µM
[7] = HPLM + 10% dialyzed FBS, 0.569 µM
[8] = HPLM + 10% dialyzed FBS, 1.71 µM
[9] = HPLM + 10% dialyzed FBS, 5.12 µM
[10] = HPLM + 10% dialyzed FBS, 15.4 µM
[11] = HPLM + 10% dialyzed FBS, 46.1 µM
[12] = RPMI 5 mM glucose + 10% FBS, 0.000781 µM
[13] = RPMI 5 mM glucose + 10% FBS, 0.00234 µM
[14] = RPMI 5 mM glucose + 10% FBS, 0.00702 µM
[15] = RPMI 5 mM glucose + 10% FBS, 0.0211 µM
[16] = RPMI 5 mM glucose + 10% FBS, 0.0632 µM
[17] = RPMI 5 mM glucose + 10% FBS, 0.19 µM
[18] = RPMI 5 mM glucose + 10% FBS, 0.569 µM
[19] = RPMI 5 mM glucose + 10% FBS, 1.71 µM
[20] = RPMI 5 mM glucose + 10% FBS, 5.12 µM
[21] = RPMI 5 mM glucose + 10% FBS, 15.4 µM
[22] = RPMI 5 mM glucose + 10% FBS, 46.1 µM
[23] = RPMI 5 mM glucose + 10% dialyzed FBS, 0.000781 µM
[24] = RPMI 5 mM glucose + 10% dialyzed FBS, 0.00234 µM
[25] = RPMI 5 mM glucose + 10% dialyzed FBS, 0.00702 µM
[26] = RPMI 5 mM glucose + 10% dialyzed FBS, 0.0211 µM
[27] = RPMI 5 mM glucose + 10% dialyzed FBS, 0.0632 µM
[28] = RPMI 5 mM glucose + 10% dialyzed FBS, 0.19 µM
[29] = RPMI 5 mM glucose + 10% dialyzed FBS, 0.569 µM
[30] = RPMI 5 mM glucose + 10% dialyzed FBS, 1.71 µM
[31] = RPMI 5 mM glucose + 10% dialyzed FBS, 5.12 µM
[32] = RPMI 5 mM glucose + 10% dialyzed FBS, 15.4 µM
[33] = RPMI 5 mM glucose + 10% dialyzed FBS, 46.1 µM

Structure (SMILES) | cell viability [1] | cell viability [2] | cell viability [3] | cell viability [4] | cell viability [5] | cell viability [6] | cell viability [7] | cell viability [8] | cell viability [9] | cell viability [10] | cell viability [11] | cell viability [12] | cell viability [13] | cell viability [14] | cell viability [15] | cell viability [16] | cell viability [17] | cell viability [18] | cell viability [19] | cell viability [20] | cell viability [21] | cell viability [22] | cell viability [23] | cell viability [24] | cell viability [25] | cell viability [26] | cell viability [27] | cell viability [28] | cell viability [29] | cell viability [30] | cell viability [31] | cell viability [32] | cell viability [33]
O=C(c1ccc(F)cc1)N1CCC[C@H](c2nc(-c3ccc(F)cc3)no2)C1 | 119% | 120% | 122% | 112% | 128% | 114% | 111% | 104% | 102% | 105% | 115% | 119% | 111% | 124% | 121% | 128% | 117% | 111% | 112% | 99.4% | 106% | 116% | 104% | 103% | 130% | 125% | 105% | 116% | 118% | 113% | 102% | 101% | 128%
OC[C@H]1O[C@H]([C@H](O)[C@@H]1O)N2\C=C/C(=O)NC2=O | 107% | 107% | 107% | 115% | 123% | 124% | 122% | 103% | 115% | 92.7% | 90.7% | 96.8% | 105% | 102% | 102% | 107% | 91.9% | 114% | 78.3% | 93.2% | 78.3% | 86.1% | 101% | 110% | 103% | 106% | 92.8% | 117% | 108% | 91% | 105% | 94.3% | 88.3%
CC(C)c1ccc2c(c1)c(SC(C)(C)C)c(CC(C)(C)C(=O)[O-])n2Cc1ccc(Cl)cc1 | 104% | 96.6% | 107% | 100% | 106% | 95.3% | 103% | 101% | 106% | 107% | 83.2% | 101% | 84% | 109% | 99.7% | 96.9% | 102% | 89.9% | 101% | 93.5% | 89.5% | 75% | 98.9% | 103% | 106% | 107% | 97.6% | 104% | 91.6% | 88.5% | 92.5% | 97.5% | 89.9%
